US20150105252A1, “SUBSTITUTED PYRAZOLES AS HERBICIDES” (E I DU PONT DE NEMOURS AND COMPANY, priority 2013, published 2015)

Tests used:
[1] = test system: lambsquarters; test: Test C postemergence; format: in vivo, Chenopodium album; settings: for Plant response rating (scale of 0 to 100 where 0 is no effect and 100 is complete control), Lambsquarters: Postemergence, 31 g ai/ha, visually evaluated after 13 to 15 days; for Lambsquarters plant response rating / Plant response rating, Lambsquarters: postemergence; for Lambsquarters plant response rating: 62 g ai/ha, scale 0 to 100
In short: (§1)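 Greenhouse pot test: preemergence application onto freshly seeded loam/sand mix, postemergence application onto seedlings (1–4 leaves, 2–18 cm) in peat-vermiculite substrate. Responses scored visually 13 to 15 days later relative to controls, where 0 means no effect and 100 means complete control; a dash indicates no result.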

[2] = test system: crabgrass, large; test: Test C preemergence; format: in vivo, Digitaria sanguinalis; settings: for Crabgrass, Large plant response rating / Plant response rating, Crabgrass, Large: preemergence; for Plant response rating, Crabgrass, Large: scale 0 to 100, 0 = no effect, 100 = complete control; for Plant response rating (scale of 0 to 100), Crabgrass, Large: Preemergence
In short: as §1

[3] = test system: wheat; test: Test C preemergence; format: in vivo, Triticum aestivum; settings: for Wheat plant response rating / Plant response rating, Wheat: preemergence; for Plant response rating, Wheat: scale 0 to 100, 0 = no effect, 100 = complete control; for Plant response rating (scale of 0 to 100), Wheat: Preemergence
In short: as §1

[4] = test system: rice; test: Test B flood; format: in vivo, Oryza sativa; settings: 250 g ai/ha, visual rating on 0 to 100 scale (0 no effect, 100 complete control), 13 to 15 days
In short: (§2)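 Visual ratings on a 0–100 scale, where 0 means no effect and 100 means complete control, were assigned by comparison with controls 13 to 15 days after treatment. Compounds went into paddy water over 2-leaf plants flooded to 3 cm.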

[5] = test system: sedge, umbrella; test: Test B flood; format: in vivo, Cyperus difformis; settings: 250 g ai/ha, visual rating on 0 to 100 scale (0 no effect, 100 complete control), 13 to 15 days
In short: as §2

[6] = test system: pigweed; test: Test A postemergence; format: in vivo, Amaranthus retroflexus
In short: (§3)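 After sowing in a sand–loam mix, pots received compound preemergence by directed soil spray, or postemergence once plants reached the one- to two-leaf stage (2–10 cm). Formulation contained surfactant in a non-phytotoxic solvent. Injury was scored visually after ~10 greenhouse days, 0–100 scale.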

[7] = test system: foxtail, giant; test: Test A preemergence; format: in vivo, Setaria faberii; settings: preemergence
In short: as §3

[8] = test system: waterhemp; test: Test C postemergence; format: in vivo, Amaranthus rudis; settings: for Plant response rating (scale of 0 to 100 where 0 is no effect and 100 is complete control), Waterhemp: Postemergence, 31 g ai/ha, visually evaluated after 13 to 15 days; for Waterhemp plant response rating / Plant response rating, Waterhemp: postemergence; for Waterhemp plant response rating: scale 0 to 100
In short: as §1

[9] = test system: johnsongrass; test: Test C postemergence; format: in vivo, Sorghum halepense; settings: for Plant response rating (scale of 0 to 100 where 0 is no effect and 100 is complete control), Johnsongrass: Postemergence, 31 g ai/ha, visually evaluated after 13 to 15 days; for Johnsongrass plant response rating / Plant response rating, Johnsongrass: postemergence; for Johnsongrass plant response rating: 62 g ai/ha, scale 0 to 100
In short: as §1

[10] = test system: velvetleaf; test: Test C postemergence; format: in vivo, Abutilon theophrasti; settings: for Plant response rating (scale of 0 to 100 where 0 is no effect and 100 is complete control), Velvetleaf: Postemergence, 31 g ai/ha, visually evaluated after 13 to 15 days; for Velvetleaf plant response rating / Plant response rating, Velvetleaf: postemergence; for Velvetleaf plant response rating: scale 0 to 100
In short: as §1

[11] = test system: wheat; test: Test C postemergence; format: in vivo, Triticum aestivum; settings: for Plant response rating (scale of 0 to 100 where 0 is no effect and 100 is complete control), Wheat: Postemergence, 31 g ai/ha, visually evaluated after 13 to 15 days; for Wheat plant response rating / Plant response rating, Wheat: postemergence; for Wheat plant response rating: scale 0 to 100
In short: as §1

[12] = test system: velvetleaf; test: Test C preemergence; format: in vivo, Abutilon theophrasti; settings: for Velvetleaf plant response rating / Plant response rating, Velvetleaf: preemergence; for Plant response rating, Velvetleaf: scale 0 to 100, 0 = no effect, 100 = complete control; for Plant response rating (scale of 0 to 100), Velvetleaf: Preemergence
In short: as §1

[13] = 250 g ai/ha, scale 0 to 100 (0 no effect, 100 complete control)
[14] = 125 g ai/ha, scale 0 to 100, 0 no effect, 100 complete control
[15] = 31 g ai/ha, visual rating, scale 0 to 100 (0 no effect, 100 complete control), 13 to 15 days
[16] = 62 g ai/ha, scale 0 to 100 (0 no effect, 100 complete control), 13 to 15 days
[17] = 250 g ai/ha, scale 0 to 100, 0 is no effect, 100 is complete control
[18] = Postemergence, 500 g ai/ha, 0 to 100 scale (0 no effect, 100 complete control)
[19] = postemergence, 125 g ai/ha, about 10 days, visual rating on 0 to 100 scale (0 no effect, 100 complete control)
[20] = 125 g ai/ha, visual injury, 0 to 100 scale, approx. 10 days
[21] = 500 g ai/ha, visual injury after approx. 10 days, 0 to 100 scale (0 no effect, 100 complete control)
[22] = 125 g ai/ha, scale 0 to 100, 0 is no effect, 100 is complete control

SMILES | Plant response rating (scale of 0 to 100 where 0 is no effect and 100 is complete control), Lambsquarters [1] | Lambsquarters plant response rating [1] | Plant response rating, Lambsquarters [1, 13] | Plant response rating, Lambsquarters [1, 14] | Crabgrass, Large plant response rating [2, 15] | Crabgrass, Large plant response rating [2, 16] | Wheat plant response rating [3, 15] | Wheat plant response rating [3, 16] | Plant response rating, Rice [4] | Plant response rating, Sedge, Umbrella [5] | Pigweed plant response rating [6, 18] | Foxtail, Giant plant response rating [7, 21] | Plant response rating, Waterhemp [8, 13] | Plant response rating (scale of 0 to 100 where 0 is no effect and 100 is complete control), Johnsongrass [9] | Johnsongrass plant response rating [9] | Plant response rating, Johnsongrass [9, 13] | Plant response rating, Johnsongrass [9, 14] | Plant response rating, Velvetleaf [10, 13] | Plant response rating, Wheat [11, 13] | Velvetleaf plant response rating [12, 15] | further results
CCCNC(=O)c1cc(OCC)n(Cc2ccnc(OC(F)F)c2)n1 [Compound 136] | 80 | 85 | 95 | 98 | 100 | 100 | 10 | 65 | 35 | 80 | 100 | 100 | 90 | 5 | 5 | 10 | 5 | 85 | 15 | 65 | Plant response rating, Crabgrass, Large ([2]; 125 g ai/ha, 13 to 15 days): 100; Crabgrass, Large plant response rating [2, 17]: 100; Plant response rating, Wheat ([3]; 125 g ai/ha, 13 to 15 days): 95; Wheat plant response rating [3, 17]: 95; Pigweed plant response rating [6, 19]: 80; Foxtail, Giant plant response rating [7, 20]: 100; Plant response rating (scale of 0 to 100 where 0 is no effect and 100 is complete control), Waterhemp [8]: 60; Waterhemp plant response rating ([8]; 62 g ai/ha): 70; Plant response rating, Waterhemp [8, 14]: 75; Plant response rating (scale of 0 to 100 where 0 is no effect and 100 is complete control), Velvetleaf [10]: 30; Velvetleaf plant response rating ([10]; 62 g ai/ha): 55; Plant response rating, Velvetleaf [10, 14]: 60; Plant response rating (scale of 0 to 100 where 0 is no effect and 100 is complete control), Wheat [11]: 5; Wheat plant response rating ([11]; 62 g ai/ha): 5; Plant response rating, Wheat [11, 14]: 10; Velvetleaf plant response rating [12, 16]: 100; Plant response rating, Velvetleaf ([12]; 125 g ai/ha, 13 to 15 days): 100; Velvetleaf plant response rating [12, 17]: 100
CCCc1cc(C(=O)NC2CC2)nn1Cc1ccnc(OC(F)F)c1 [Compound 205] | 85 | 85 | 85 | 90 | 100 | 100 | 5 | 15 | 0 | 100 | 100 | 100 | 85 | 5 | 10 | 45 | 20 | 40 | 5 | 55 | Plant response rating, Crabgrass, Large ([2]; 125 g ai/ha, 13 to 15 days): 100; Crabgrass, Large plant response rating [2, 17]: 100; Plant response rating, Wheat ([3]; 125 g ai/ha, 13 to 15 days): 85; Wheat plant response rating [3, 17]: 95; Pigweed plant response rating ([6]; Postemergence, 125 g ai/ha, 0 to 100 scale, 0 no effect, 100 complete control): 100; Foxtail, Giant plant response rating (0 to 100 scale) ([7]; 125 g ai/ha, visual injury approx. 10 days after treatment): 100; Waterhemp plant response rating [8]: 70; Velvetleaf plant response rating [10]: 40; Wheat plant response rating [11]: 5; Velvetleaf plant response rating [12, 16]: 100; Plant response rating, Velvetleaf ([12]; 125 g ai/ha, 13 to 15 days): 100; Velvetleaf plant response rating [12, 17]: 100
CCCc1cc(C(=O)NCC(F)(F)F)nn1Cc1ccnc(OC(F)F)c1 [Compound 127] | 65 | 80 | 85 | 85 | 80 | 100 | 5 | 40 | 20 | 85 | 90 | 100 | 70 | 5 | 5 | 25 | 30 | 70 | 10 | 60 | Plant response rating (scale of 0 to 100), Crabgrass, Large ([2]; 250 g ai/ha): 100; Plant response rating, Crabgrass, Large ([2]; 125 g ai/ha, 13 to 15 days): 100; Plant response rating (scale of 0 to 100), Wheat ([3]; 250 g ai/ha): 85; Plant response rating, Wheat ([3]; 125 g ai/ha, 13 to 15 days): 85; Pigweed plant response rating [6, 19]: 90; Foxtail, Giant plant response rating [7, 20]: 90; Plant response rating (scale of 0 to 100 where 0 is no effect and 100 is complete control), Waterhemp [8]: 50; Waterhemp plant response rating ([8]; 62 g ai/ha): 65; Plant response rating, Waterhemp [8, 14]: 70; Plant response rating (scale of 0 to 100 where 0 is no effect and 100 is complete control), Velvetleaf [10]: 10; Velvetleaf plant response rating ([10]; 62 g ai/ha): 15; Plant response rating, Velvetleaf [10, 14]: 45; Plant response rating (scale of 0 to 100 where 0 is no effect and 100 is complete control), Wheat [11]: 5; Wheat plant response rating ([11]; 62 g ai/ha): 5; Plant response rating, Wheat [11, 14]: 5; Plant response rating (scale of 0 to 100), Velvetleaf ([12]; 250 g ai/ha): 100; Velvetleaf plant response rating [12, 16]: 60; Plant response rating, Velvetleaf ([12]; 125 g ai/ha, 13 to 15 days): 100
CCc1cc(C(=O)NOC(C)C)nn1Cc1ccnc(OC(F)F)c1 [Compound 126] | 35 | 70 | 90 | 80 | 90 | 100 | 45 | 80 | 20 | 95 | 90 | 100 | 90 | 5 | 10 | 25 | 20 | 70 | 5 | 65 | Plant response rating (scale of 0 to 100), Crabgrass, Large ([2]; 250 g ai/ha): 100; Crabgrass, Large plant response rating [2, 22]: 100; Plant response rating (scale of 0 to 100), Wheat ([3]; 250 g ai/ha): 90; Wheat plant response rating [3, 22]: 90; Pigweed plant response rating [6, 19]: 90; Foxtail, Giant plant response rating [7, 20]: 100; Plant response rating (scale of 0 to 100 where 0 is no effect and 100 is complete control), Waterhemp [8]: 40; Waterhemp plant response rating ([8]; 62 g ai/ha): 50; Plant response rating, Waterhemp [8, 14]: 70; Plant response rating (scale of 0 to 100 where 0 is no effect and 100 is complete control), Velvetleaf [10]: 30; Velvetleaf plant response rating ([10]; 62 g ai/ha): 25; Plant response rating, Velvetleaf [10, 14]: 35; Plant response rating (scale of 0 to 100 where 0 is no effect and 100 is complete control), Wheat [11]: 5; Wheat plant response rating ([11]; 62 g ai/ha): 5; Plant response rating, Wheat [11, 14]: 5; Plant response rating (scale of 0 to 100), Velvetleaf ([12]; 250 g ai/ha): 100; Velvetleaf plant response rating [12, 16]: 85; Velvetleaf plant response rating [12, 22]: 100
